Assay results reported in the NIST ThermoML archive (doi:10.1016/j.jct.2014.08.023).
Numbers after ± are expanded uncertainties.

Settings: Liquid, Vibrating tube method

CC(C)OC(C)C [diisopropyl ether]
mass density [kg/m3]
Settings | 293.15 K | 298.15 K | 313.15 K | 333.15 K | 353.19 K | 373.24 K | 393.29 K
100 kPa | 723.5 ± 0.7 | 718.3 ± 0.7 | 702.4 ± 0.7 | 680.4 ± 0.7 | – | – | –
1000 kPa | 724.3 ± 0.7 | 719.5 ± 0.7 | 703.7 ± 0.7 | 682 ± 0.7 | 659.5 ± 0.7 | 635.5 ± 0.7 | 609.5 ± 0.7
5000 kPa | 729.1 ± 0.7 | 724.5 ± 0.7 | 709.3 ± 0.7 | 688.8 ± 0.7 | 667.5 ± 0.7 | 645.5 ± 0.7 | 622.1 ± 0.8
10000 kPa | 734.5 ± 0.7 | 730.2 ± 0.7 | 715.7 ± 0.7 | 696.3 ± 0.8 | 676.4 ± 0.8 | 656.1 ± 0.8 | 634.9 ± 0.8
15000 kPa | 739.6 ± 0.8 | 735.6 ± 0.8 | 721.6 ± 0.8 | 703.1 ± 0.8 | 684.4 ± 0.8 | 665.3 ± 0.8 | 645.7 ± 0.8
20000 kPa | 744.5 ± 0.8 | 740.5 ± 0.8 | 727.1 ± 0.8 | 709.3 ± 0.8 | 691.5 ± 0.8 | 673.4 ± 0.8 | 655.1 ± 0.8
25000 kPa | 749 ± 0.8 | 745.2 ± 0.8 | 732 ± 0.8 | 715 ± 0.8 | 698 ± 0.8 | 680.8 ± 0.8 | 663.4 ± 0.8
30000 kPa | 753.3 ± 0.8 | 749.6 ± 0.8 | 737.1 ± 0.8 | 720.4 ± 0.8 | 704 ± 0.8 | 687.6 ± 0.9 | 671 ± 0.9
35000 kPa | 757.4 ± 0.8 | 753.7 ± 0.8 | 741.5 ± 0.8 | 725.5 ± 0.9 | 709.6 ± 0.9 | 693.8 ± 0.9 | 677.9 ± 0.9
40000 kPa | 761.3 ± 0.8 | 757.7 ± 0.9 | 745.8 ± 0.9 | 730.2 ± 0.9 | 714.8 ± 0.9 | 699.6 ± 0.9 | 684.3 ± 0.9
45000 kPa | 765 ± 0.9 | 761.6 ± 0.9 | 749.9 ± 0.9 | 734.7 ± 0.9 | 719.7 ± 0.9 | 705 ± 0.9 | 690.2 ± 1
50000 kPa | 768.6 ± 0.9 | 765.2 ± 0.9 | 753.8 ± 0.9 | 739 ± 0.9 | 724.5 ± 0.9 | 710.1 ± 1 | 695.7 ± 1
55000 kPa | 772.1 ± 0.9 | 768.7 ± 0.9 | 757.6 ± 0.9 | 743.1 ± 1 | 728.9 ± 1 | 714.9 ± 1 | 701 ± 1
60000 kPa | 775.4 ± 0.9 | 772.1 ± 0.9 | 761.3 ± 1 | 747 ± 1 | 733.1 ± 1 | 719.5 ± 1 | 705.9 ± 1.1
65000 kPa | 778.6 ± 1 | 775.4 ± 1 | 764.8 ± 1 | 750.8 ± 1 | 737.2 ± 1 | 723.9 ± 1.1 | 710.6 ± 1.1
70000 kPa | 781.7 ± 1 | 778.5 ± 1 | 768.1 ± 1 | 754.3 ± 1 | 741.1 ± 1.1 | 728.1 ± 1.1 | 715.1 ± 1.1
80000 kPa | 787.6 ± 1 | 784.5 ± 1 | 774.3 ± 1 | 761.2 ± 1.1 | 748.4 ± 1.1 | 735.9 ± 1.1 | 723.5 ± 1.2
90000 kPa | 793.2 ± 1.1 | 790.3 ± 1.1 | 780.4 ± 1.1 | 767.7 ± 1.1 | 755.3 ± 1.2 | 743.2 ± 1.2 | 731.3 ± 1.2
100000 kPa | 798.5 ± 1.1 | 795.6 ± 1.1 | 786 ± 1.1 | 773.6 ± 1.2 | 761.6 ± 1.2 | 750 ± 1.2 | 738.3 ± 1.3
110000 kPa | 803.6 ± 1.1 | 800.8 ± 1.1 | 791.4 ± 1.2 | 779.3 ± 1.2 | 767.7 ± 1.3 | 756.3 ± 1.3 | 745.2 ± 1.3
120000 kPa | 808.4 ± 1.2 | 805.6 ± 1.2 | 796.4 ± 1.2 | 784.6 ± 1.3 | 773.4 ± 1.3 | 762.3 ± 1.3 | 751.3 ± 1.4
130000 kPa | 812.9 ± 1.2 | 810.3 ± 1.2 | 801.3 ± 1.3 | 789.8 ± 1.3 | 778.8 ± 1.3 | 768 ± 1.4 | 757.4 ± 1.4
140000 kPa | 817.3 ± 1.2 | 814.6 ± 1.3 | 806 ± 1.3 | 794.7 ± 1.3 | 784 ± 1.4 | 773.3 ± 1.4 | 763 ± 1.5
